For 50 compounds, IC50 results are on record in patent EP1345943B1, “INHIBITORS OF PAPILLOMA VIRUS” (BOEHRINGER INGELHEIM (CANADA) LTD., priority 2000, dated 2002).

The structures appear in SMILES notation.

The target of this experiment is E1-E2-DNA complex (Human papillomavirus 11, UniProt P04015). The experiment can be described thus: E2-dependent E1 DNA binding assay (E1-E2 DNA assay). The following applies: E1-E2 DNA assay of Example 11, HPV-11. As for the experimental part: This particular assay determines the ability of a test compound to inhibit the activity (IC50) of HPV-11 DNA replication. More specifically, in the assay described herein, the inhibitory activity of the test compound is evaluated based on its ability to interfere with the E1-E2-DNA origin of replication interaction, thereby inhibiting initiation of viral DNA replication.
This assay was modeled on a similar assay for SV40 T Antigen described by McKay (J. Mol. Biol., 1981,145:471). A 400bp radiolabeled DNA probe, containing the -HPV-11 origin of replication (Chiang et al.., 1992, Proc. Natl.-Acad. Sci. USA 89:5799) was produced by pcr, using plasmid pBluescript™ SK encoding the origin (nucleotides 7886-61 of the HPV-11 genome in unique BAMH1 site) as template and primers flanking the origin. Radiolabel was incorporated as [33p]dCTP. Binding assay buffer consisted of: 20 mM Tris pH 7.6, 100 mM NaCI, 1 mM DTT, 1 mM EDTA.
Other reagents used were protein A-SPA beads (type II, Amersham) and K72 rabbit polyclonal antiserum, raised against a peptide corresponding to the C-terminal 14 amino acids of HPV-11 E1. Following the protocol from Amersham, one bottle of beads was mixed with 25 mL of binding assay buffer. For the assay, a saturating amount of K72 antiserum was added to the beads and the mixture was incubated for 1 h, washed with one volume of binding assay buffer, and then resuspended in the same volume of fresh binding assay buffer. Binding reactions contained 8 ng of E2, approximately 100-200 ng of purified E1, and 0.4 ng of radiolabeled probe in a total of 80 µL of binding assay buffer. After 1 h at room temperature, 25 µL of K72 antibody-SPA bead suspension was added to with the binding reaction and mixed. After an additional hour of incubation at room temperature, the reactions were centrifuged briefly to pellet the beads and the extent of complex formation was determined by scintillation counting on a Packard TopCount™. Typically, the signal for reactions containing E1 and E2 was 20-30 fold higher than the background observed when either E1, E2, or both was omitted.

Sequence of E1-E2-DNA complex (P04015 whole entry, one chain of several): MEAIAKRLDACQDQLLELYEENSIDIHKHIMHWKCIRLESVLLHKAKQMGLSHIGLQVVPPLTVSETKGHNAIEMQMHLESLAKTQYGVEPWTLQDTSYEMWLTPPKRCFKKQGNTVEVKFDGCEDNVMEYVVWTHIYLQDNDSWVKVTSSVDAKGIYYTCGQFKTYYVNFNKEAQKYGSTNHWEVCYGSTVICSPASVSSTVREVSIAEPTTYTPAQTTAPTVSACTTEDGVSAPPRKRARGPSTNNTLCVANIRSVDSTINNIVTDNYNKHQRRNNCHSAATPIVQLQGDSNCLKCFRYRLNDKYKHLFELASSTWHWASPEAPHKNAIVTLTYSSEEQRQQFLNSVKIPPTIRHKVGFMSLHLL

`O=C(Nc1ccccc1Br)C1C(c2cc(Cl)cc(Cl)c2)OC2(C(=O)c3ccccc3C2=O)C1C(=O)O` (centres unmarked) [Compound 1142]: the IC50 (as a rule, the point on the concentration scale where inhibition reaches its midpoint) was below 0.5 µM.
As for `O=C(Nc1ccccc1)C1C(c2ccc(Br)c(Br)c2)OC2(C(=O)c3ccccc3C2=O)C1C(=O)O` (racemic) [Compound 1074], the figure is below 0.5 µM.
`CC(=O)c1ccc(NC(=O)C2C(c3ccc4ccccc4c3)OC3(C(=O)c4ccccc4C3=O)C2C(=O)O)cc1` (centres unmarked) [Compound 4004] came in with an IC50 of 0.5 to 5 µM.
The compound `O=C(Nc1ccc(F)cc1F)C1C(c2ccc(Cl)cc2)OC2(C(=O)c3ccccc3C2=O)C1C(=O)O` (centres unmarked) [Compound 1009] yielded an IC50 of 5 to 50 µM.
Regarding `CC(NC(=O)C1C(c2ccc(Cl)c(Cl)c2)OC23C(=O)c4ccccc4C2(O)OC(=O)C13)c1ccccc1` (centres unmarked) [Compound 3100], the half-inhibitory concentration (IC50) is 5 to 50 µM.
Regarding `O=C(Nc1cc(F)cc(F)c1)C1C(c2ccc(Cl)c(Cl)c2)OC2(C(=O)c3ccccc3C2=O)C1C(=O)O` (centres unmarked) [Compound 1096], the IC50 is 0.5 to 5 µM.
`O=C(Nc1ccc2c(c1)OCO2)C1C(c2cc3ccccc3o2)OC2(C(=O)c3ccccc3C2=O)C1C(=O)O` (centres unmarked) [Compound 4002] came in with a 50% inhibitory concentration (IC50) of 5 to 50 µM.
With `O=C(Nc1ccc(OC(F)(F)F)cc1)C1C(c2ccc(Br)c(Br)c2)OC2(C(=O)c3ccccc3C2=O)C1C(=O)O` (centres unmarked) [Compound 1118], the IC50 lay in the range of 0.5 to 5 µM.
Consider `CSc1ccc(NC(=O)C2C(c3ccc(Cl)c(Cl)c3)OC3(C(=O)c4ccccc4C3=O)C2C(=O)O)cc1` (centres unmarked) [Compound 1033], for which the IC50 lay within 0.5 to 5 µM.
Consider `CC(=O)c1ccc(NC(=O)C2C(c3cccc(Cl)c3)OC3(C(=O)c4ccccc4C3=O)C2C(=O)O)cc1` (centres unmarked) [Compound 1044], for which the half-inhibitory concentration (IC50) was 5 to 50 µM.
As to `Cc1ccc2c(c1)C1(O)OC(=O)C3C(C(=O)NCCc4ccccc4Cl)C(c4ccc(Br)c(Br)c4)OC31C2=O` (single isomer, unassigned) [Compound B1007], the IC50 was below 0.5 µM.
The result for `O=C(NC1CCCCC1)C1C(c2ccc(Br)c(Br)c2)OC2(C(=O)c3ccccc3C2=O)C1C(=O)O` (centres unmarked) [Compound 1099] reads below 0.5 µM; that for `O=C(Nc1ccc(N2CCOCC2)cc1)C1C(c2ccc(Br)c(Br)c2)OC2(C(=O)c3ccc(F)cc3C2=O)C1C(=O)O` (centres unmarked) [Compound 1144], below 0.5 µM; that for `O=C(Nc1ccc(N2CCOCC2)cc1)C1C(c2ccc(Br)c(Br)c2)OC2(C(=O)c3ccccc3C2=O)C1C(=O)O` (centres unmarked) [10,001], 0.5 to 5 µM.
The compound `CC(C)NC(=O)C1C(c2ccc(Cl)c(Cl)c2)OC2(C(=O)c3ccccc3C2=O)C1C(=O)O` (centres unmarked) [Compound 1036] came in with an IC50 of 0.5 to 5 µM.
In turn, `O=C(Nc1ccc(-c2csnn2)cc1)C1C(c2ccc(Br)c(Br)c2)OC2(C(=O)c3ccccc3C2=O)C1C(=O)O` (single isomer, unassigned) [Compound A1002] showed an IC50 below 0.5 µM.
The compound `Cc1cc(C)cc(NC(=O)C2C(c3ccc(Cl)c(Cl)c3)OC3(C(=O)c4ccccc4C3=O)C2C(=O)O)c1` (centres unmarked) [Compound 1126] registered an IC50 of 0.5 to 5 µM.
Regarding `Cc1ccc2c(c1)C(=O)C1(OC(c3ccc(Br)c(Br)c3)C(C(=O)Nc3ccc(-c4csnn4)cc3)C1C(=O)O)C2=O` (single isomer, unassigned) [Compound A1011], the IC50 was below 0.5 µM.
For the compound `CC(=O)c1ccc(NC(=O)C2C(c3ccc(Cl)c(Cl)c3)OC3(C(=O)c4ccc(Cl)cc4C3=O)C2C(=O)O)cc1` (centres unmarked) [Compound 1114], the IC50 fell in the range of 0.5 to 5 µM.
As to `O=C1C2C(c3cccc(Cl)c3)OC3(C(=O)c4ccccc4C3=O)C2C(=O)N1c1ccc2c(c1)OCO2` (centres unmarked) [Compound 2005], the concentration for half-maximal inhibition (IC50) was 0.5 to 5 µM.
Consider `O=C(Nc1ccc2c(c1)OCO2)C1C(c2ccc(I)cc2)OC2(C(=O)c3ccccc3C2=O)C1C(=O)O` (centres unmarked) [Compound 1039], for which the IC50 was in the range of 0.5 to 5 µM.
As for `O=C(Nc1ccc2c(c1)OCO2)C1C(c2ccc(C(F)(F)F)c(F)c2)OC2(C(=O)c3ccccc3C2=O)C1C(=O)O` (centres unmarked) [Compound 1045], the figure is 0.5 to 5 µM; as for `O=C(NC1CC1c1ccccc1)C1C(c2ccc(Cl)c(Cl)c2)OC2(C(=O)c3ccccc3C2=O)C1C(=O)O` (centres unmarked) [Compound 1066], below 0.5 µM.
Compound `O=C(Nc1ccc(N2CCOCC2)cc1)C1C(c2ccc(Cl)c(Cl)c2)OC2(C(=O)c3ccccc3C2=O)C1C(=O)O` (centres unmarked) [Compound 1034] yielded an IC50 below 0.5 µM.
Consider `O=C(NC1CC1c1ccccc1)C1C(c2ccc(Br)c(Br)c2)OC2(C(=O)c3ccccc3C2=O)C1C(=O)O` (single isomer, unassigned) [Compound 1089], for which the IC50 is below 0.5 µM.
On to `O=C(Nc1ccc2c(c1)OCO2)C1C(c2ccc(Cl)cc2)OC2(C(=O)c3cccc(F)c3C2=O)C1C(=O)O` (centres unmarked) [Compound 1019], for which the IC50 was in the range of 5 to 50 µM.
`O=C(Nc1ccc2c(c1)OCO2)C1C(c2ccc(Cl)cc2)OC2(C(=O)c3ccccc3C2=O)C1C(=O)O` (centres unmarked) [Compound 1001] showed an IC50 of 5 to 50 µM.
For `Cc1ccc2c(c1)C(=O)C13OC(c4ccc(Br)c(Br)c4)C(C(=O)NCCc4ccccc4Cl)C1C(=O)OC23O` (single isomer, unassigned) [Compound B1006], the concentration for half-maximal inhibition (IC50) was 0.5 to 5 µM.
`O=C(Nc1ccc(N2CCOCC2)cc1)C1C(c2ccc(Br)c(Br)c2)OC2(C(=O)c3ccccc3C2=O)C1C(=O)O` (single isomer, unassigned) [Compound A1012] gave an IC50 of 5 to 50 µM.
The result for `CC(=O)c1ccc(NC(=O)C2C(C=Cc3cccc(Br)c3)OC3(C(=O)c4ccccc4C3=O)C2C(=O)O)cc1` (centres unmarked) [Compound 4006] reads 5 to 50 µM.
Consider `CC(=O)c1ccc(NC(=O)C2C(c3ccc(F)c(Cl)c3)OC3(C(=O)c4ccccc4C3=O)C2C(=O)O)cc1` (centres unmarked) [Compound 1094], for which the IC50 lay within 0.5 to 5 µM.
The result for `Cc1ccc(NC(=O)C2C(c3ccc(Br)c(Br)c3)OC3(C(=O)c4ccccc4C3=O)C2C(=O)O)cc1` (racemic) [Compound 1072] reads below 0.5 µM.
The result for `O=C(Nc1ccccc1)C1C(c2ccc(Cl)cc2)OC2(C(=O)c3ccccc3C2=O)C1C(=O)O` (centres unmarked) [Compound 1011] reads 5 to 50 µM; that for `O=C1C2C(c3ccc(Cl)cc3)OC3(C(=O)c4ccccc4C3=O)C2C(=O)N1c1ccc2c(c1)CCC2` (centres unmarked) [Compound 2012], 5 to 50 µM.
The compound `CC(=O)c1ccc(NC(=O)C2C(c3ccc(Cl)cc3)OC3(C(=O)c4ccccc4C3=O)C2C(=O)O)cc1` (centres unmarked) [Compound 1005] showed a half-maximal inhibitory concentration (IC50) of 5 to 50 µM.
The compound `O=C(Nc1ccc(F)cc1)C1C(c2ccc(Cl)cc2)OC2(C(=O)c3ccccc3C2=O)C1C(=O)O` (centres unmarked) [Compound 1003] registered a concentration for half-maximal inhibition (IC50) of 5 to 50 µM.
For `O=C(Nc1cccc(Cl)c1)C1C(c2ccc(Cl)cc2)OC2(C(=O)c3ccccc3C2=O)C1C(=O)O` (centres unmarked) [Compound 1006], the IC50 was in the range of 5 to 50 µM.
Compound `COc1ccc2c(c1)C(=O)C1(OC(c3ccc(Cl)c(Cl)c3)C(C(=O)Nc3ccc(C(C)=O)cc3)C1C(=O)O)C2=O` (centres unmarked) [Compound 1129] had a 50% inhibitory concentration (IC50) of 5 to 50 µM.
In turn, `O=C(Nc1ccc(Cl)cc1)C1C(c2ccc(Cl)c(Cl)c2)OC2(C(=O)c3ccccc3C2=O)C1C(=O)O` (centres unmarked) [Compound 1063] displayed an IC50 of 0.5 to 5 µM.
The compound `O=C(Nc1ccc(Br)c(Cl)c1)C1C(c2ccc(Cl)c(Cl)c2)OC2(C(=O)c3ccccc3C2=O)C1C(=O)O` (centres unmarked) [Compound 1104] registered an IC50 of 0.5 to 5 µM.
As for `COc1ccc2c(c1)C(=O)C1(OC(c3ccc(Cl)c(Cl)c3)C(C(=O)Nc3ccc(C(C)=O)cc3)C1C(=O)O)C2=O` (centres unmarked) [Compound 1130], the figure is 5 to 50 µM; as for `CC(C)(C)NC(=O)C1C(c2ccc(Cl)c(Cl)c2)OC2(C(=O)c3ccccc3C2=O)C1C(=O)O` (centres unmarked) [Compound 1046], 0.5 to 5 µM; as for `CC(=O)c1ccc(NC(=O)C2C(c3ccc(Cl)c(Cl)c3)OC3(C(=O)c4ccc(F)cc4C3=O)C2C(=O)O)cc1` (centres unmarked) [Compound 1107], 0.5 to 5 µM.
As to `CC(=O)Nc1ccc(NC(=O)C2C(c3ccc(Br)c(Br)c3)OC3(C(=O)c4ccccc4C3=O)C2C(=O)O)cc1` (centres unmarked) [Compound 1092], the concentration for half-maximal inhibition (IC50) is below 0.5 µM.
As to `O=C(Nc1ccccc1F)C1C(c2ccc(Cl)c(Cl)c2)OC2(C(=O)c3ccccc3C2=O)C1C(=O)O` (centres unmarked) [Compound 1125], the half-maximal inhibitory concentration (IC50) was below 0.5 µM.
Turning to `Nc1ccc(N2C(=O)C3C(c4ccc(Cl)c(Cl)c4)OC4(C(=O)c5ccccc5C4=O)C3C2=O)cc1` (centres unmarked) [Compound 2019], the 50% inhibitory concentration (IC50) was in the range of 0.5 to 5 µM.
`O=C(Nc1ccc(F)c(F)c1)C1C(c2ccc(F)c(Cl)c2)OC2(C(=O)c3ccccc3C2=O)C1C(=O)O` (centres unmarked) [Compound 1122]: the half-maximal inhibitory concentration (IC50) was 5 to 50 µM.
As to `Cc1cc2c(cc1F)C(=O)C1(OC(c3ccc(Br)c(Br)c3)C(C(=O)Nc3ccc(N4CCOCC4)cc3)C1C(=O)O)C2=O` (single isomer, unassigned) [Compound A1015], the IC50 was below 0.5 µM.
The compound `O=C(Nc1ccc(Cl)cc1)C1C(c2ccc(Br)c(Br)c2)OC2(C(=O)c3ccccc3C2=O)C1C(=O)O` (centres unmarked) [Compound 1110] yielded a concentration for half-maximal inhibition (IC50) below 0.5 µM.
In turn, `Cc1cccc(N2C(=O)C3C(c4ccc(Cl)cc4)OC4(C(=O)c5ccccc5C4=O)C3C2=O)c1` (centres unmarked) [Compound 2010] registered a 50% inhibitory concentration (IC50) of 5 to 50 µM.
